In US8106055B2, “Substituted amide compounds” (Gruenenthal GmbH, priority 2007, dated 2012):
Where two headings read alike, the source gives them in different places.

Tests used:
[1] = biological target: T1, human bradykinin 1 receptor (B1R) (Homo sapiens, UniProt P46663); assay: Functional investigation on the human bradykinin 1 receptor (B1R), Ca2+ FLIPR assay in CHO K1 hB1R cells; type: cell-based; details: for B1R Ant. h [10 μM] % Inhibition: B1R antagonism human
T1 construct: expressed in transfected cells; host or cells: CHO K1 cells
T1 sequence (P46663 1-353): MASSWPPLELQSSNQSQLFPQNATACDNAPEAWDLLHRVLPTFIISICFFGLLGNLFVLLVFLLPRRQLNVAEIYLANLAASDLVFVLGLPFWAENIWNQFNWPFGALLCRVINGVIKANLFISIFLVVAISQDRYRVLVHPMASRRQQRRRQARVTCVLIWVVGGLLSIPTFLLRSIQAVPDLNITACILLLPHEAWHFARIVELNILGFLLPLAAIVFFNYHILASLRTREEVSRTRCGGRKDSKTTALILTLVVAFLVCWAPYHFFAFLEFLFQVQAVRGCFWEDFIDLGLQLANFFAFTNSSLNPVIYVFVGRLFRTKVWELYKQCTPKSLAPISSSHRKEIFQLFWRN
In short: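 Peak Ca2+-dependent fluorescence in B1R-transfected CHO K1 cells measures antagonism of an EC80 agonist challenge given 10-20 min after compound. Agonist is Lys-Des-Arg9-bradykinin for human, Des-Arg9-bradykinin for rat receptor.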

[2] = biological target: T2, serotonin (5-HT) reuptake (Rattus norvegicus, UniProt P31652); assay: Inhibition of serotonin (5HT) reuptake in synaptosomes from rat brain; type: biochemical
T2 construct: synaptosomes are freshly isolated from areas of the rat brain; from tissue; host or cells: rat brain synaptosomes (P2 fraction)
Experimental: Binding data of the compounds on the μ opioid receptor and data on the inhibition of reuptake of serotonin (5-HT) are given in Table 1. The data for the μ receptor were measured at a test concentration of 1 μM, and those for the serotonin reuptake at 10 μM. The values are stated in % inhibition.
Inhibition of Serotonin (5HT) Reuptake
In order to be able to carry out these in vitro studies, synaptosomes are freshly isolated from areas of the rat brain. In each case a so-called “P2” fraction prepared in accordance with the instructions of Gray and Whittaker (E. G. Gray and V. P. Whittaker (1962) J. Anat. 76, 79-88) is prepared. For the NA uptake, these vesicular particles are isolated from the hypothalamus of male rat brains.
A detailed description of the method can be found in the literature (M. Ch. Frink, H.-H. Hennies, W. Englberger, M. Haurand and B. Wilffert (1996) Arzneim.-Forsch./Drug Res. 46 (III), 11, 1029-1036).

human μ opiate receptor = biological target: T3, human μ opiate receptor (Homo sapiens, UniProt P35372); assay: Affinity for the human μ opiate receptor ([3H]-naloxone displacement, CHO-K1 receptor membrane preparation, SPA); type: binding
T3 construct: purchased PerkinElmer Life Sciences, Zaventem, Belgium RB-HOM; host or cells: CHO-K1 cells (membrane preparation)
In short: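 At 1 μmol/l, compounds were scored for % displacement of 1 nmol/l [3H]-naloxone from CHO-K1-expressed human μ opiate receptor in a homogeneous SPA format (90 min, room temperature).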

[3] = test substance 10 μM, Ca2+ FLIPR, CHO K1 hB1R cells
[4] = CHO-K1, B1R antagonism human, test substance 10 μM, Ca2+ FLIPR, CHO K1 hB1R cells, read-out: B1R Ant. h [10 μM] % Inhibition
[5] = test concentration of 10 μM, read-out: 5-HT (inhibition of reuptake of serotonin, % inhibition)
[6] = test concentration of 1 μM, read-out: μ (binding on the μ opioid receptor, % inhibition)

T3 sequence (P35372 whole entry): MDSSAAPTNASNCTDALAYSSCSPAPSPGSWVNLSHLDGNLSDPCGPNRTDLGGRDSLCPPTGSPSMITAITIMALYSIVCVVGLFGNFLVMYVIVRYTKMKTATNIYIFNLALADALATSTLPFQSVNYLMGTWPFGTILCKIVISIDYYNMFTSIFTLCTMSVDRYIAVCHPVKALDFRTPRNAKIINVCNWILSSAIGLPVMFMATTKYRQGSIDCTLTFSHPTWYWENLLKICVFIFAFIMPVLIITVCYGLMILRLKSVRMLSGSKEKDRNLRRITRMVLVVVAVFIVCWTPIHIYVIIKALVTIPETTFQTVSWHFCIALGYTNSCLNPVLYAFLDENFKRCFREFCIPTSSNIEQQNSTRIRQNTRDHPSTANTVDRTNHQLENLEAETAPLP
T2 sequence (P31652 whole entry): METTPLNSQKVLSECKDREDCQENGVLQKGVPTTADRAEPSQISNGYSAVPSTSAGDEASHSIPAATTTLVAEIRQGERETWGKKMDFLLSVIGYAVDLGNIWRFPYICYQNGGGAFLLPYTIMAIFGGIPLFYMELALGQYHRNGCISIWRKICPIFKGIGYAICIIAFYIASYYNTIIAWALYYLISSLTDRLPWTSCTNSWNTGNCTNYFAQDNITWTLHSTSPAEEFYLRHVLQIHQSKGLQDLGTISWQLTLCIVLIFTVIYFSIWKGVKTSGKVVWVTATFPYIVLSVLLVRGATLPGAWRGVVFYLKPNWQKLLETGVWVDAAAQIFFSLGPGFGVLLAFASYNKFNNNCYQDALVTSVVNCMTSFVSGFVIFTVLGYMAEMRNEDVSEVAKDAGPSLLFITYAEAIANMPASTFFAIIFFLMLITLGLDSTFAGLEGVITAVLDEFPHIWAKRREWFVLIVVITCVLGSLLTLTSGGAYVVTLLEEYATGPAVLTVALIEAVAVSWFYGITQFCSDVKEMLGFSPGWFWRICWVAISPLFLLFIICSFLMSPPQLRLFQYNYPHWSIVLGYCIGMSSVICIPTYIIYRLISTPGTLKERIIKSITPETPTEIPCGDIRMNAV

CN(C)C(c1ccccc1)C1CCC(NC(=O)COCc2c(N(C)S(=O)(=O)c3ccc(Cl)c(Cl)c3)sc3c2CCCC3)CC1 (stereo not shown) [Example 369]
B1R Ant. h [10 μM] % Inhibition [1, 3]: 21% | 5-HT (inhibition of reuptake of serotonin, % inhibition) ([2]; test concentration of 10 μM): 66% | μ (binding on the μ opioid receptor, % inhibition) (human μ opiate receptor; test concentration of 1 μM): 66%

CN(C)C(c1cccs1)C1CCC(CCNC(=O)COCCN(C)S(=O)(=O)c2c(F)c(F)c(F)c(F)c2F)CC1 (stereo not shown) [Example 465]
B1R Ant. h [10 μM] % Inhibition [1, 3]: −3% | 5-HT (inhibition of reuptake of serotonin, % inhibition) ([2]; test concentration of 10 μM): 72% | μ (binding on the μ opioid receptor, % inhibition) (human μ opiate receptor; test concentration of 1 μM): 48%

COc1ccc(S(=O)(=O)N2CCCCC2CCOCC(=O)NC2CCC(C(c3ccccc3)N(C)C)CC2)cc1 (stereo not shown) [Example 3, N-(4-((dimethylamino)(phenyl)methyl)cyclohexyl)-2-(2-(1-(4-methoxyphenylsulfonyl)piperidin-2-yl)ethoxy)acetamide]
inhibition at 10 µM [1, 4]: 69% | inhibition at 10 µM [2, 5]: 92% | inhibition at 1 µM (human μ opiate receptor; [6]): 99%

COc1cc(C)c(S(=O)(=O)N(C)CCOCC(=O)NCC2CCC(C(CCc3ccccc3)N(C)C)CC2)c(C)c1C (stereo not shown) [Example 453]
B1R Ant. h [10 μM] % Inhibition [1, 3]: 97% | 5-HT (inhibition of reuptake of serotonin, % inhibition) ([2]; test concentration of 10 μM): 89% | μ (binding on the μ opioid receptor, % inhibition) (human μ opiate receptor; test concentration of 1 μM): 46%

CN(C)C(c1ccccc1)C1CCC(NC(=O)COCC2CCCCN2S(=O)(=O)c2ccc(Cl)cc2)CC1 (stereo not shown) [Example 95, 2-((1-(4-chlorophenylsulfonyl)piperidin-2-yl)methoxy)-N-(4-((dimethylamino)(phenyl)methyl)cyclohexyl)acetamide]
inhibition at 10 µM [1, 4]: 22% | inhibition at 10 µM [2, 5]: 84% | inhibition at 1 µM (human μ opiate receptor; [6]): 91%

COc1ccc(S(=O)(=O)N2CCCCC2COCC(=O)NC2CCC(C(c3ccccc3)N(C)C)CC2)cc1OC (stereo not shown) [Example 198, 2-((1-(3,4-dimethoxyphenylsulfonyl)piperidin-2-yl)methoxy)-N-(4-((dimethylamino)(phenyl)methyl)cyclohexyl)acetamide]
inhibition at 10 µM [1, 4]: -12% | inhibition at 10 µM [2, 5]: 88% | inhibition at 1 µM (human μ opiate receptor; [6]): 78%

COc1ccc(S(=O)(=O)N2CCCCC2COCC(=O)NC2CCC(C(c3ccccc3)N(C)C)CC2)cc1 (stereo not shown) [Example 154, N-(4-((dimethylamino)(phenyl)methyl)cyclohexyl)-2-((1-(4-methoxyphenylsulfonyl)piperidin-2-yl)methoxy)acetamide]
inhibition at 10 µM ([1]; CHO-K1, read-out: B1R Ant. h [10 μM] % Inhibition): 69% | inhibition at 10 µM [2, 5]: 90% | inhibition at 1 µM (human μ opiate receptor; [6]): 83%

COc1cc(C)c(S(=O)(=O)N(C)CCOCC(=O)NC2CCC(C(c3cccc(F)c3)N(C)C)CC2)c(C)c1C (stereo not shown) [Example 159, N-(4-((dimethylamino)(3-fluorophenyl)methyl)cyclohexyl)-2-(2-(4-methoxy-N,2,3,6-tetramethylphenylsulfonamido)ethoxy)acetamide]
inhibition at 10 µM [1, 4]: 91% | inhibition at 10 µM [2, 5]: 72% | inhibition at 1 µM (human μ opiate receptor; [6]): 85%

Cc1cc(C)c(S(=O)(=O)N(C)CCOCC(=O)NCCC2CCC(C(c3cccs3)N(C)C)CC2)c(C)c1 (stereo not shown) [Example 385]
B1R Ant. h [10 μM] % Inhibition [1, 3]: 15% | 5-HT (inhibition of reuptake of serotonin, % inhibition) ([2]; test concentration of 10 μM): 93% | μ (binding on the μ opioid receptor, % inhibition) (human μ opiate receptor; test concentration of 1 μM): 59%

CN(C)C(c1ccccc1)C1CCC(NC(=O)COC2CCCN(S(=O)(=O)c3ccccc3)C2)CC1 (stereo not shown) [Example 109, N-(4-((dimethylamino)(phenyl)methyl)cyclohexyl)-2-(1-(phenylsulfonyl)piperidin-3-yloxy)acetamide]
inhibition at 10 µM [1, 4]: 26% | inhibition at 10 µM [2, 5]: 87% | inhibition at 1 µM (human μ opiate receptor; [6]): 89%

COc1cc(C)c(S(=O)(=O)N(C)CCOCC(=O)NC2CCC(C(c3ccc(F)cc3)N(C)C)CC2)c(C)c1C (stereo not shown) [Example 380]
B1R Ant. h [10 μM] % Inhibition [1, 3]: 86% | 5-HT (inhibition of reuptake of serotonin, % inhibition) ([2]; test concentration of 10 μM): 81% | μ (binding on the μ opioid receptor, % inhibition) (human μ opiate receptor; test concentration of 1 μM): 55%

CN(C)C(c1ccccc1)C1CCC(NC(=O)COCCN(C2CC2)S(=O)(=O)c2c(Cl)cc(Cl)cc2Cl)CC1 (stereo not shown) [Example 600, 2-{2-[cyclopropyl-(2,4,6-trichlorobenzenesulfonyl)-amino]-ethoxy}-N-[4-(dimethylaminophenylmethyl)-cyclohexyl]-acetamide]
inhibition at 10 µM [1, 4]: 101% | inhibition at 10 µM ([2]; Table 2, test concentration 10 μM, read-out: 5-HT reuptake): 60% | inhibition at 1 µM (human μ opiate receptor; 1.5 h, Table 2, test concentration 1 μM, read-out: μ receptor): 95%

CN(C)C(c1ccccc1)C1CCC(NC(=O)COCCC2CCN(S(=O)(=O)c3ccccc3)CC2)CC1 (stereo not shown) [Example 124, N-(4-((dimethylamino)(phenyl)methyl)cyclohexyl)-2-(2-(1-(phenylsulfonyl)piperidin-4-yl)ethoxy)acetamide]
inhibition at 10 µM [1, 4]: 9% | inhibition at 10 µM [2, 5]: 89% | inhibition at 1 µM (human μ opiate receptor; [6]): 87%

Cc1cc(C)c(S(=O)(=O)N(C)CCOCC(=O)NCCC2CCC(C(c3ccc(F)cc3)N(C)C)CC2)c(C)c1 (stereo not shown) [Example 417]
B1R Ant. h [10 μM] % Inhibition [1, 3]: 100% | 5-HT (inhibition of reuptake of serotonin, % inhibition) ([2]; test concentration of 10 μM): 91% | μ (binding on the μ opioid receptor, % inhibition) (human μ opiate receptor; test concentration of 1 μM): 60%

COc1cc(C)c(S(=O)(=O)N(C)CCOCC(=O)NCC2CCC(C(c3ccccc3)N(C)C)CC2)c(C)c1C (stereo not shown) [Example 40, N-((4-((dimethylamino)(phenyl)methyl)cyclohexyl)methyl)-2-(2-(4-methoxy-N,2,3,6-tetramethylphenylsulfonamido)ethoxy)acetamide]
inhibition at 10 µM [1, 4]: 99% | inhibition at 10 µM [2, 5]: 84% | inhibition at 1 µM (human μ opiate receptor; [6]): 96%

CN(C)C(c1ccccc1)C1CCC(NC(=O)COCc2ccccc2)CC1 (stereo not shown) [Example 245]
5-HT (inhibition of reuptake of serotonin, % inhibition) ([2]; test concentration of 10 μM): 59% | μ (binding on the μ opioid receptor, % inhibition) (human μ opiate receptor; test concentration of 1 μM): 80%

CN(C)C(c1ccccc1)C1CCC(NC(=O)COC2CCN(S(=O)(=O)c3ccccc3)CC2)CC1 (stereo not shown) [Example 257]
B1R Ant. h [10 μM] % Inhibition [1, 3]: 26% | 5-HT (inhibition of reuptake of serotonin, % inhibition) ([2]; test concentration of 10 μM): 86% | μ (binding on the μ opioid receptor, % inhibition) (human μ opiate receptor; test concentration of 1 μM): 74%

CN(C)C(c1cccc(F)c1)C1CCC(NC(=O)COCc2ccccc2)CC1 (stereo not shown) [Example 353]
5-HT (inhibition of reuptake of serotonin, % inhibition) ([2]; test concentration of 10 μM): 60% | μ (binding on the μ opioid receptor, % inhibition) (human μ opiate receptor; test concentration of 1 μM): 67%

CC(=O)OC(C(=O)NCC1CCC(C(c2ccc(Cl)cc2)N(C)C)CC1)c1ccccc1 (stereo not shown) [Example 360]
5-HT (inhibition of reuptake of serotonin, % inhibition) ([2]; test concentration of 10 μM): 15% | μ (binding on the μ opioid receptor, % inhibition) (human μ opiate receptor; test concentration of 1 μM): 66%

CC(Oc1ccccc1)C(=O)NC1CCC(C(CCc2ccccc2)N(C)C)CC1 (stereo not shown) [Example 577]
5-HT (inhibition of reuptake of serotonin, % inhibition) ([2]; test concentration of 10 μM, 10 µM): 16% | μ (binding on the μ opioid receptor, % inhibition) (human μ opiate receptor; test concentration of 1 μM, 1 µM): 14%

CN(C)C(CCc1ccccc1)C1CCC(NC(=O)COc2ccc(Cl)cc2)CC1 (stereo not shown) [Example 564]
5-HT (inhibition of reuptake of serotonin, % inhibition) ([2]; test concentration of 10 μM): 47% | μ (binding on the μ opioid receptor, % inhibition) (human μ opiate receptor; test concentration of 1 μM): 24%

CN(C)C(CCc1ccccc1)C1CCC(NC(=O)COCc2ccccc2)CC1 (stereo not shown) [Example 582]
5-HT (inhibition of reuptake of serotonin, % inhibition) ([2]; test concentration of 10 μM): 75% | μ (binding on the μ opioid receptor, % inhibition) (human μ opiate receptor; test concentration of 1 μM): 9%

CN(C)C(c1cccc(F)c1)C1CCC(NC(=O)COc2ccc(Cl)cc2)CC1 (stereo not shown) [Example 505]
5-HT (inhibition of reuptake of serotonin, % inhibition) ([2]; test concentration of 10 μM): 59% | μ (binding on the μ opioid receptor, % inhibition) (human μ opiate receptor; test concentration of 1 μM): 42%

CC(Oc1ccccc1)C(=O)NCCC1CCC(C(c2ccccc2)N(C)C)CC1 (stereo not shown) [Example 270]
5-HT (inhibition of reuptake of serotonin, % inhibition) ([2]; test concentration of 10 μM): 73% | μ (binding on the μ opioid receptor, % inhibition) (human μ opiate receptor; test concentration of 1 μM): 77%

CCOC(=O)C(=O)NCC1CCC(C(CCc2ccccc2)N(C)C)CC1 (stereo not shown) [Example 421]
5-HT (inhibition of reuptake of serotonin, % inhibition) ([2]; test concentration of 10 μM): 26% | μ (binding on the μ opioid receptor, % inhibition) (human μ opiate receptor; test concentration of 1 μM): 57%

CN(C)C(c1ccccc1)C1CCC(NC(=O)COc2ccc(Cl)cc2)CC1 (stereo not shown) [Example 316]
5-HT (inhibition of reuptake of serotonin, % inhibition) ([2]; test concentration of 10 μM): 59% | μ (binding on the μ opioid receptor, % inhibition) (human μ opiate receptor; test concentration of 1 μM): 72%

CC(Oc1ccccc1)C(=O)NCC1CCC(C(CCc2ccccc2)N(C)C)CC1 (stereo not shown) [Example 495]
5-HT (inhibition of reuptake of serotonin, % inhibition) ([2]; test concentration of 10 μM): 48% | μ (binding on the μ opioid receptor, % inhibition) (human μ opiate receptor; test concentration of 1 μM): 44%
